These are literature values, as cited in patent US20090239923A1 (priority 2008, published 2009).

This data set has as its system human body. The conditions noted are these: ingestion, 70 Kg human body; 90 mL = 70 g.

For `CO` [methanol], the Lethal dose is given as 90 mL.
